Test results as given in PubChem BioAssay (NCI).
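1) Cells in 96-well plates. 2) Compound, 48 h, 5 concentrations. 3) Linear interpolation between surrounding doses. 4) Unreached endpoint = highest concentration. Abbreviation: GI50, concentration required for 50% inhibition of growth. TGI is the concentration that stops growth completely.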

Columns and labels:
Test in all cases: inhibition of tumour cell growth, NCI panel, 48 h
[1] = tested on: TK-10 renal
[2] = tested on: NCI-H226 lung
[3] = tested on: HOP-92 NSCLC
[4] = tested on: NCI-H460 lung
[5] = tested on: CCRF-CEM leukemia
[6] = tested on: SK-MEL-5 melanoma
[7] = tested on: SF-268 CNS
[8] = tested on: LOX IMVI melanoma
[9] = tested on: SR leukemia
[10] = tested on: CAKI-1 renal

## C=CCC1[C@@H](C(C)(C)C(C(C)=O)C(=O)C(=O)OC)OC(C(C)(C)C)N1C(=O)OC (some centres undefined)
[1]
  TGI: > 100 µM
[2]
  TGI: > 100 µM
[3]
  TGI: > 100 µM
[4]
  TGI: > 100 µM
[5]
  TGI: > 100 µM
[6]
  TGI: > 100 µM
[7]
  TGI: > 100 µM

## C#CCC(N)(CO)C(=O)O (centres undefined)
[8]
  TGI: > 100 µM
[1]
  TGI: > 100 µM
[9]
  TGI: > 100 µM
[2]
  TGI: > 100 µM
[10]
  TGI: > 100 µM
[3]
  TGI: > 100 µM
[4]
  TGI: > 100 µM
[6]
  TGI: > 100 µM
[7]
  TGI: > 100 µM

## Cl[Si]1(Cl)Oc2ccccc2O[Si](Cl)(Cl)Oc2ccccc2O1
[8]
  TGI: 36.5 µM
[1]
  TGI: > 100 µM
[2]
  TGI: > 100 µM
[10]
  TGI: 97.5 µM
[3]
  TGI: 89.6 µM
[4]
  TGI: 65.9 µM
[5]
  TGI: 10.5 µM
[6]
  TGI: 27 µM
[7]
  TGI: > 100 µM

## Cc1cc2c(Br)cc(Br)c(O)c2nc1C(=O)c1ccccc1
[8]
  TGI: > 86 µM
[1]
  TGI: > 100 µM
[9]
  TGI: > 100 µM
[2]
  TGI: > 79.2 µM
[10]
  TGI: > 100 µM
[4]
  TGI: 30.7 µM
[5]
  TGI: > 100 µM
[6]
  TGI: 29.8 µM
[7]
  TGI: > 100 µM

## CC1(Cc2ccccc2)NC(=S)NC1=O (centres undefined)
[8]
  TGI: > 100 µM
[1]
  TGI: > 100 µM
[9]
  TGI: > 100 µM
[2]
  TGI: > 100 µM
[10]
  TGI: > 100 µM
[3]
  TGI: > 100 µM
[4]
  TGI: > 100 µM
[7]
  TGI: > 100 µM

## COc1c(Br)cc(Br)c(OC)c1-c1[nH]c(Br)c(Br)c1Br
[8]
  TGI: 31.6 µM
[1]
  TGI: 24.7 µM
[2]
  TGI: 25.8 µM
[10]
  TGI: 9.1 µM
[3]
  TGI: 7.79 µM
[4]
  TGI: 32.8 µM
[5]
  TGI: 20.5 µM
[6]
  TGI: 20.5 µM
[7]
  TGI: 15.1 µM

## CC1(c2ccccc2)CC(c2ccccc2)=NO1 (centres undefined)
[1]
  TGI: > 100 µM
[9]
  TGI: > 100 µM
[2]
  TGI: > 100 µM
[10]
  TGI: > 100 µM
[3]
  TGI: > 100 µM
[4]
  TGI: > 100 µM
[5]
  TGI: > 100 µM
[6]
  TGI: > 100 µM
[7]
  TGI: > 100 µM

## c1ccc2nc3c(cc4ccccn43)nc2c1
[8]
  GI50: 47.1 µM
  TGI: > 100 µM
[1]
  GI50: 8.36 µM
  TGI: 55.1 µM
[9]
  GI50: 52.5 µM
  TGI: > 100 µM
[10]
  GI50: 55.2 µM
  TGI: > 100 µM
[3]
  GI50: 30.9 µM
  TGI: > 100 µM
[4]
  GI50: > 100 µM
  TGI: > 100 µM
[5]
  GI50: > 100 µM
  TGI: > 100 µM
[6]
  GI50: 25.8 µM
  TGI: > 100 µM
[7]
  GI50: > 100 µM
  TGI: > 100 µM

## OC(c1ccc(Br)cc1)(c1cccs1)C1CC1 (centres undefined)
[8]
  TGI: 42.4 µM
[1]
  TGI: 76.4 µM
[10]
  TGI: 69.6 µM
[3]
  TGI: 37.7 µM
[4]
  TGI: 57.8 µM
[5]
  TGI: 91.8 µM
[6]
  TGI: 33 µM
[7]
  TGI: 45.4 µM

## Cn1cc(-c2csc(-c3cn(C)c4ccccc34)n2)c2cnccc21
[1]
  GI50: 2.25 µM
  TGI: 4.18 µM
[10]
  GI50: 2.58 µM
  TGI: 9.12 µM
[4]
  GI50: 1.79 µM
  TGI: 3.49 µM
[5]
  GI50: 1.78 µM
  TGI: 3.86 µM
[6]
  GI50: 1.69 µM
  TGI: 3.07 µM
[7]
  GI50: 1.92 µM
  TGI: 3.92 µM

## COC(=O)/C(C#N)=C1\CCC(C(=O)OC)N1C (centres undefined)
[1]
  TGI: > 100 µM
[9]
  TGI: > 100 µM
[10]
  TGI: > 100 µM
[3]
  TGI: > 100 µM
[4]
  TGI: > 100 µM
[5]
  TGI: > 100 µM
[6]
  TGI: > 100 µM
[7]
  TGI: > 100 µM

## CC(=O)OC1COC(n2c(=S)n(-c3ccccc3)c(=O)c3cc(Br)ccc32)C(OC(C)=O)C1OC(C)=O (centres undefined)
[8]
  TGI: > 100 µM
[2]
  TGI: > 100 µM
[10]
  TGI: > 100 µM
[3]
  TGI: 55.5 µM
[4]
  TGI: > 100 µM
[5]
  TGI: > 100 µM
[6]
  TGI: > 100 µM
[7]
  TGI: > 100 µM

## CC(C)c1ccccc1NC(=O)/C(Cl)=C1/Sc2ccccc2NC1=O
[8]
  TGI: > 100 µM
[1]
  TGI: > 100 µM
[2]
  TGI: > 100 µM
[10]
  TGI: > 100 µM
[3]
  TGI: > 100 µM
[4]
  TGI: > 100 µM
[5]
  TGI: 82.8 µM
[6]
  TGI: 78.8 µM
[7]
  TGI: > 100 µM

## CC(=O)N[C@H](C(=O)N[C@@H](CCCNC(=N)N)C(=O)N[C@@H](CCCCN)C(=O)N[C@@H](CCCNC(=N)N)C(=O)N[C@]1(C)CCCCCC/C=C\CCC[C@@](C)(C(=O)N[C@@H](CCCNC(=N)N)C(=O)N[C@@H](CCC(=O)O)C(=O)N[C@@H](CC(C)C)C(=O)N[C@H](C(=O)N[C@@H](CCC(=O)O)C(N)=O)C(C)C)NC(=O)[C@H](CCC(N)=O)NC(=O)[C@H](CC(C)C)NC(=O)[C@H](CC(C)C)NC(=O)[C@H](CCCNC(=N)N)NC(=O)[C@H](CCCNC(=N)N)NC(=O)[C@H](CC(C)C)NC1=O)C(C)C
[8]
  GI50: 10.1 µM
  TGI: 43 µM
[1]
  GI50: 1.6 µM
  TGI: 8.8 µM
[2]
  GI50: 2.43 µM
  TGI: 28.7 µM
[10]
  GI50: 2.06 µM
  TGI: 11.7 µM
[3]
  GI50: 1.73 µM
  TGI: 8.43 µM
[5]
  GI50: 7.28 µM
  TGI: 26.7 µM
[6]
  GI50: 1.1 µM
  TGI: 2.62 µM
[7]
  GI50: 1.47 µM
  TGI: 4.58 µM

## O=C1C2=C(c3ccccc31)C(c1ccccc1Cl)N1C(=O)CCSC1=N2 (centres undefined)
[1]
  TGI: > 100 µM
[2]
  TGI: > 100 µM
[10]
  TGI: > 100 µM
[3]
  TGI: > 100 µM
[5]
  TGI: > 100 µM
[6]
  TGI: > 100 µM
[7]
  TGI: > 100 µM

## Cc1ccc2nc3c(Cl)c(C)c(=O)cc-3sc2c1
[8]
  TGI: > 100 µM
[1]
  GI50: > 100 µM
  TGI: > 100 µM
[2]
  GI50: 60 µM
  TGI: > 100 µM
[10]
  GI50: > 100 µM
  TGI: > 100 µM
[3]
  TGI: > 100 µM
[4]
  GI50: 50.3 µM
  TGI: > 100 µM
[5]
  GI50: 30.5 µM
  TGI: > 100 µM
[6]
  TGI: > 100 µM
[7]
  GI50: 43.6 µM
  TGI: > 100 µM

## CCOC(=O)c1ccc(N[C@@H]2c3cc4c(cc3C(C3=CC(=O)C(=O)C(OC)=C3)[C@H]3C(=O)OCC32)OCO4)cc1 (some centres undefined)
[8]
  TGI: 11.4 µM
[1]
  TGI: 38.9 µM
[10]
  TGI: 11.5 µM
[3]
  TGI: 25 µM
[4]
  TGI: 5.84 µM
[5]
  TGI: > 28.1 µM
[6]
  TGI: 11.7 µM
[7]
  TGI: 10.4 µM

## O=c1ncccn1C1C=C(CO)C(O)C1O (centres undefined)
[8]
  TGI: > 50 µM
[1]
  TGI: > 50 µM
[2]
  TGI: > 50 µM
[10]
  TGI: > 50 µM
[3]
  TGI: > 50 µM
[4]
  TGI: > 50 µM
[5]
  TGI: > 50 µM
[6]
  TGI: > 50 µM
[7]
  TGI: > 50 µM

## Cn1c2ccccc2c2c(=O)c3ccccc3[nH]c21
[8]
  GI50: 44.2 µM
  TGI: > 100 µM
[1]
  GI50: 42.4 µM
  TGI: > 100 µM
[9]
  GI50: > 100 µM
  TGI: > 100 µM
[2]
  GI50: 38.8 µM
  TGI: > 100 µM
[10]
  GI50: > 100 µM
  TGI: > 100 µM
[4]
  GI50: 32.4 µM
  TGI: > 100 µM
[6]
  GI50: 42.9 µM
  TGI: > 100 µM
[7]
  GI50: 25 µM
  TGI: > 100 µM

## COc1cc2cnc3c4ccccc4ccc3c2cc1OC
[1]
  TGI: > 100 µM
[10]
  TGI: > 100 µM
[4]
  TGI: > 100 µM
[5]
  TGI: > 100 µM
[6]
  TGI: > 100 µM
[7]
  TGI: > 100 µM

## N=S(c1ccccc1)c1ccccc1[N+](=O)[O-] (centres undefined)
[8]
  TGI: 28.2 µM
[1]
  TGI: 34.8 µM
[9]
  TGI: 50.1 µM
[2]
  TGI: 25.4 µM
[10]
  TGI: 28.8 µM
[4]
  TGI: 51 µM
[5]
  TGI: 43.4 µM
[6]
  TGI: 28.5 µM
[7]
  TGI: 42.1 µM
